Read-outs that look alike come from different tables or passages of the source.
What was measured:
5-HT2B receptor [1] = biological target: T1, 5-HT2B receptor (Homo sapiens, UniProt P41595); assay: Primary screening: inhibition of radioligand binding at 5-HT2B (NIMH PDSP)
5-HT2A = 5-HT2A (Homo sapiens, UniProt P28223); assay: Primary screening: inhibition of radioligand binding at 5-HT2A (NIMH PDSP)
5-HT2C [2] = biological target: T2, 5-HT2C (Homo sapiens, UniProt P28335); assay: Primary screening: inhibition of radioligand binding at 5-HT2C (NIMH PDSP)
T2 sequence (P28335 33-458): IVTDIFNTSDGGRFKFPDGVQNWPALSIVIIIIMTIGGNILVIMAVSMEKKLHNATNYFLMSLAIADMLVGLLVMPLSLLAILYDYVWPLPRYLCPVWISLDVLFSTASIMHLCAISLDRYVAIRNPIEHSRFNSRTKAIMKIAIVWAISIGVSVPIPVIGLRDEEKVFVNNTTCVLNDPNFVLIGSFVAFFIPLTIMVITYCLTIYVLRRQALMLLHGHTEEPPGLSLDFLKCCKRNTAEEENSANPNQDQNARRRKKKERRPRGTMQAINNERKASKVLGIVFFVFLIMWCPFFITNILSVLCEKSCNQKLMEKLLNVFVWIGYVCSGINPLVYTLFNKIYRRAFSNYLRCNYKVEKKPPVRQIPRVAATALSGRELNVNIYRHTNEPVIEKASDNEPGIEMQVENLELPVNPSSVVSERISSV

5-HT2B receptor [3] = biological target: T1, 5-HT2B receptor; assay: Binding affinity (pKi) by competitive inhibition of [3H]LSD at 5-HT2B; details: for Ki: pKi at 5-HT2B
5-HT2C [4] = biological target: T2, 5-HT2C; assay: Binding affinity (pKi) at 5-HT2C
5-HT2B receptor [5] = biological target: T1, 5-HT2B receptor; assay: Calcium mobilization assay in Flp-In HEK cells (agonist/antagonist functional activity); details: compound at 10 μM
[6] = read-out: % Inhibition of radioligand binding 5-HT2B
[7] = read-out: % Inhibition of radioligand binding 5-HT2A
[8] = read-out: % Inhibition of radioligand binding 5-HT2C
[9] = read-out: inhibitory activity at 5-HT2B

T1 sequence (P41595 whole entry): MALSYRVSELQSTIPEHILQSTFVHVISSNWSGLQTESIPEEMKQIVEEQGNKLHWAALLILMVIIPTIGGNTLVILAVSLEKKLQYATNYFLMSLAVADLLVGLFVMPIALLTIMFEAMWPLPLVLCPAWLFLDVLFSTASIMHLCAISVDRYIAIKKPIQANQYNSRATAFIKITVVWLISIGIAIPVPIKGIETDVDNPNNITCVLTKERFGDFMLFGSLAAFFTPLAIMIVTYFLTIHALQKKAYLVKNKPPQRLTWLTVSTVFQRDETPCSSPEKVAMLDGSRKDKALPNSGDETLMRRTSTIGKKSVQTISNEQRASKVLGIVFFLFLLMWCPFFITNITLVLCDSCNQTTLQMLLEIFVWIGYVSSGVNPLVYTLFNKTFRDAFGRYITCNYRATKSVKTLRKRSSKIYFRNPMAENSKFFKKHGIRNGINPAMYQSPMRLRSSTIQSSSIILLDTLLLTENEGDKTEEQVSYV
5-HT2A, sequence (P28223 whole entry, species assumed): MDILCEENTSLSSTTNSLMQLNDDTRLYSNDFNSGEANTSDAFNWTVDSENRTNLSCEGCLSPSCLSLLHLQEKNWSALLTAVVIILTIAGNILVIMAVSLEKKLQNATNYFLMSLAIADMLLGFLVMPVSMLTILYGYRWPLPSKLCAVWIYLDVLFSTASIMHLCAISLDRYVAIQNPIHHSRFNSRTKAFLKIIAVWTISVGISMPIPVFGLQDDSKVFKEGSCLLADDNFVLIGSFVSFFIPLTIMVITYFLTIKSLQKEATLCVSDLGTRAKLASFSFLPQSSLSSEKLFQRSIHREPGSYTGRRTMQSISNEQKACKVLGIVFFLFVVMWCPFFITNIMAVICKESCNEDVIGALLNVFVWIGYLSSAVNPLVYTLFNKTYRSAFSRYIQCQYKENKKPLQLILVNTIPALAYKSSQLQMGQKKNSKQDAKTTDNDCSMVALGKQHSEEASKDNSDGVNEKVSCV

For `O=c1cc(Cc2ccccc2)oc2cccc(O)c12` [Compound 22g, 2-benzyl-5-hydroxy-4H-chromen-4-one], the inhibition at 10 µM (5-HT2B receptor [1]; read-out: % Inhibition 5-HT2B) was 30.6%, the inhibition at 10 µM (5-HT2B receptor [1]; [6]) was 30.6% and the inhibition at 10 µM (5-HT2A; read-out: % Inhibition 5-HT2A) was 1.4%. The inhibition at 10 µM (5-HT2A; [7]) was 1.4%, the inhibition at 10 µM (5-HT2C [2]; read-out: % Inhibition 5-HT2C) was 24.8% and the inhibition at 10 µM (5-HT2C [2]; [8]) was 24.8%.

In the case of `O=c1cc(CCc2cccc(O)c2)oc2cccc(O)c12` [Compound 22c, 5-Hydroxy-2-(3′-hydroxy-2-phenylethyl)chromone], the inhibition at 10 µM (5-HT2B receptor [1]; [6]) is reported as 76.3%, the inhibition at 10 µM (5-HT2B receptor [1]; [9]) is reported as 76% and the “pKi at 5-HT2B” value (5-HT2B receptor [3]) is reported as 5.9. For the same compound, the Ki (5-HT2B receptor [3]; Table 7) was 1290 nM, the inhibition at 10 µM (5-HT2A; [7]) was 39% and the inhibition at 10 µM (5-HT2C [2]; [8]) was 30.4%.

`O=c1cc(CCCCc2ccccc2)oc2cccc(O)c12` [Compound 22i, 5-hydroxy-2-(4-phenylbutyl)-4H-chromen-4-one] showed an inhibition at 10 µM (5-HT2B receptor [1]; read-out: % Inhibition 5-HT2B) of 45.2%, an inhibition at 10 µM (5-HT2B receptor [1]; [6]) of 45.2% and an inhibition at 10 µM (5-HT2A; read-out: % Inhibition 5-HT2A) of 5.7%. For the same compound, the inhibition at 10 µM (5-HT2A; [7]) was 5.7%, the inhibition at 10 µM (5-HT2C [2]; read-out: % Inhibition 5-HT2C) was 14.7% and the inhibition at 10 µM (5-HT2C [2]; [8]) was 14.7%.

For `O=c1cc(CCc2ccco2)oc2cccc(O)c12` [Compound 22f, 5-Hydroxy-2-(2-(furan-2-yl)ethyl)chromone], the inhibition at 10 µM (5-HT2B receptor [1]; [6]) was 68.8%, the “pKi at 5-HT2B” value (5-HT2B receptor [3]) was 5.7 and the Ki (5-HT2B receptor [3]; Table 7) was 1820 nM. For the same compound, the inhibition at 10 µM (5-HT2A; [7]) was 12.4% and the inhibition at 10 µM (5-HT2C [2]; [8]) was 24.2%.

Compound `O=c1cc(CCc2ccccc2O)oc2cccc(O)c12` [Compound 22b, 5-hydroxy-2-(2-hydroxyphenethyl)-4H-chromen-4-one] has an inhibition at 10 µM (5-HT2B receptor [1]; [6]) of 12.8%, an inhibition at 10 µM (5-HT2A; [7]) of 24.3% and an inhibition at 10 µM (5-HT2C [2]; [8]) of 23.8%.

In the case of `O=c1cc(CCc2cccc(O)c2)oc2cc(O)ccc12` [Compound 22m, 7-Hydroxy-2-(3′-hydroxy-2-phenylethyl)chromone], the inhibition at 10 µM (5-HT2B receptor [1]; [6]) is reported as 25.3%, the inhibition at 10 µM (5-HT2A; [7]) is reported as 23.2% and the inhibition at 10 µM (5-HT2C [2]; [8]) is reported as 0%.

Work on `O=c1cc(CCc2cccs2)oc2cccc(O)c12` [Compound 22e, 5-hydroxy-2-(2-(thiophen-2-yl)ethyl)-4H-chromen-4-one] yielded an inhibition at 10 µM (5-HT2B receptor [1]; read-out: % Inhibition 5-HT2B) of 74.8%, an inhibition at 10 µM (5-HT2B receptor [1]; [6]) of 74.8% and a Ki (5-HT2B receptor [3]) of 1260 nM. The Ki (5-HT2B receptor [3]; Table 7) was 1050 nM, the inhibition at 10 µM (5-HT2A; read-out: % Inhibition 5-HT2A) was 1.4% and the inhibition at 10 µM (5-HT2A; [7]) was 1.4%. The inhibition at 10 µM (5-HT2C [2]; read-out: % Inhibition 5-HT2C) was 19.6% and the inhibition at 10 µM (5-HT2C [2]; [8]) was 19.6%.

For `O=c1cc(CCc2ccccc2)oc2cc(O)ccc12` [Compound 22k, 7-hydroxy-2-phenethyl-4H-chromen-4-one], the inhibition at 10 µM (5-HT2B receptor [1]; [6]) was 34.2%, the inhibition at 10 µM (5-HT2A; [7]) was 35.5% and the inhibition at 10 µM (5-HT2C [2]; [8]) was 33.7%.

Compound `O=c1cc(COCCc2ccccc2)oc2cccc(O)c12` [Compound 22s, 5-hydroxy-2-(phenethoxymethyl)chromone] has an inhibition at 10 µM (5-HT2B receptor [1]; [6]) of 77.7%, a Ki (5-HT2B receptor [3]; Table 7) of 1260 nM and an inhibition at 10 µM (5-HT2A; [7]) of 0.3%. For the same compound, the inhibition at 10 µM (5-HT2C [2]; [8]) was 11.7%.

With `O=c1cc(Cc2cccc3ccccc23)oc2cccc(O)c12` [Compound 22q, 5-hydroxy-2-(naphthalen-1-ylmethyl)chromone] the inhibition at 10 µM (5-HT2B receptor [1]; [6]) was 17.4%, the inhibition at 10 µM (5-HT2A; [7]) was 9.5% and the inhibition at 10 µM (5-HT2C [2]; [8]) was 2.1%.

`O=c1cc(CCc2ccc(O)cc2)oc2cc(O)ccc12` [Compound 22n, 7-Hydroxy-2-(4′-hydroxy-2-phenylethyl)chromone] showed an inhibition at 10 µM (5-HT2B receptor [1]; [6]) of 40.8%, an inhibition at 10 µM (5-HT2A; [7]) of 33.3% and a Ki (5-HT2C [4]) of 2510 nM. It also gave a Ki (5-HT2C [4]; Table 7) of 2450 nM, an inhibition at 10 µM (5-HT2C [2]; [8]) of 53.1% and an inhibition at 10 µM (5-HT2C [2]; read-out: inhibitory activity at 5-HT2C) of 53%.

With `O=c1cc(CCCc2ccccc2)oc2cccc(O)c12` [Compound 22h, 5-hydroxy-2-(3-phenylpropyl)-4H-chromen-4-one] the inhibition at 10 µM (5-HT2B receptor [1]; read-out: % Inhibition 5-HT2B) was 70.4%, the inhibition at 10 µM (5-HT2B receptor [1]; [6]) was 70.4% and the “pKi at 5-HT2B” value (5-HT2B receptor [3]) was 6.6. It also gave a Ki (5-HT2B receptor [3]; Table 7) of 240 nM, an inhibition at 10 µM (5-HT2A; read-out: % Inhibition 5-HT2A) of 5.4% and an inhibition at 10 µM (5-HT2A; [7]) of 5.4%. For the same compound, the antagonist activity (5-HT2B receptor [5]; challenged with an EC50 dose (1.6 nM) of 5-HT) was 20.5±0.5 % inhibition, the agonist activity (5-HT2B receptor [5]; compared to 5-HT) was 0.23±0.2 % of the maximal response and the inhibition at 10 µM (5-HT2C [2]; read-out: % Inhibition 5-HT2C) was 7.9%. The inhibition at 10 µM (5-HT2C [2]; [8]) was 7.9%.

With `O=c1cc(COc2ccc3ccccc3c2)oc2cccc(O)c12` [Compound 22o, 5-hydroxy-2-((naphthalen-2-yloxy)methyl)chromone] the inhibition at 10 µM (5-HT2B receptor [1]; [6]) was 2.9%, the inhibition at 10 µM (5-HT2A; [7]) was -3% and the inhibition at 10 µM (5-HT2C [2]; [8]) was -0.7%.

For `O=c1cc(COc2cccc3ccccc23)oc2cccc(O)c12` [Compound 22p, 5-hydroxy-2-((naphthalen-1-yloxy)methyl)chromone], the inhibition at 10 µM (5-HT2B receptor [1]; [6]) was 11.8%, the inhibition at 10 µM (5-HT2A; [7]) was -1.1% and the inhibition at 10 µM (5-HT2C [2]; [8]) was 0.7%.

With `O=c1cc(CC(O)c2ccccc2)oc2cc(O)ccc12` (stereo not drawn) [Compound 22l, 7-Hydroxy-2-(2′-hydroxy-2-phenylethyl)chromone] the inhibition at 10 µM (5-HT2B receptor [1]; [6]) was 16.6%, the inhibition at 10 µM (5-HT2A; [7]) was 47.9% and the inhibition at 10 µM (5-HT2C [2]; [8]) was 44%.

For `O=c1cc(Cc2cccs2)oc2cccc(O)c12` [Compound 22r, 5-hydroxy-2-(thiophen-2-ylmethyl)-4H-chromen-4-one], the inhibition at 10 µM (5-HT2B receptor [1]; read-out: % Inhibition 5-HT2B) was 31.5%, the inhibition at 10 µM (5-HT2B receptor [1]; [6]) was 31.5% and the inhibition at 10 µM (5-HT2A; read-out: % Inhibition 5-HT2A) was -4.5%. The inhibition at 10 µM (5-HT2A; [7]) was -4.5%, the inhibition at 10 µM (5-HT2C [2]; read-out: % Inhibition 5-HT2C) was 23.5% and the inhibition at 10 µM (5-HT2C [2]; [8]) was 23.5%.

For `O=c1cc(COCc2ccccc2)oc2cccc(O)c12` [Compound 22j, 5-hydroxy-2-((benzyloxy)methyl)chromone], the inhibition at 10 µM (5-HT2B receptor [1]; [6]) was 77.7%, the inhibition at 10 µM (5-HT2B receptor [1]; [9]) was 78% and the “pKi at 5-HT2B” value (5-HT2B receptor [3]; Table 7) was 5.8 ± 0.05. For the same compound, the “fold decrease in 5-HT2B affinity compared to 5-HPPC (22h)” value (5-HT2B receptor [3]; relative to 5-HPPC) was 6 fold, the inhibition at 10 µM (5-HT2A; [7]) was 3.2% and the inhibition at 10 µM (5-HT2C [2]; [8]) was 42.1%.

`O=c1cc(COc2ccccc2)oc2cccc(O)c12` [Compound 22a, 5-hydroxy-2-(phenoxymethyl)-4H-chromen-4-one] gave an inhibition at 10 µM (5-HT2B receptor [1]; read-out: % Inhibition 5-HT2B) of 50%, an inhibition at 10 µM (5-HT2B receptor [1]; [6]) of 50% and an inhibition at 10 µM (5-HT2B receptor [1]; [9]) of 50%. The Ki (5-HT2B receptor [3]) was greater than 10000 nM, the Ki (5-HT2B receptor [3]; Table 7) was greater than 10000 nM and the inhibition at 10 µM (5-HT2A; read-out: % Inhibition 5-HT2A) was 0.2%. For the same compound, the inhibition at 10 µM (5-HT2A; [7]) was 0.2%, the inhibition at 10 µM (5-HT2C [2]; read-out: % Inhibition 5-HT2C) was 7.8% and the inhibition at 10 µM (5-HT2C [2]; [8]) was 7%.
